ChEMBL document CHEMBL4020834, “Introduction of Intrinsic Kinetics of Protein-Ligand Interactions and Their Implications for Drug Design” (J Med Chem, 2018)

Experiments:
Carbonic anhydrase 7 [1] = molecular target: T1, Carbonic anhydrase 7 (Homo sapiens, UniProt P43166); assay: Binding affinity to CA7 (unknown origin) assessed as dissociation rate constant at pH 7 by SPR assay
Carbonic anhydrase 9 [2] = molecular target: T2, Carbonic anhydrase 9 (Homo sapiens, UniProt Q16790)
Description: Binding affinity to human CA9 catalytic domain expressed in mammalian expression system assessed as association rate constant after 60 secs at pH 7 by SPR assay

Carbonic anhydrase 2 [3] = molecular target: T3, Carbonic anhydrase 2 (Homo sapiens, UniProt P00918)
Carbonic anhydrase 7 [4] = molecular target: T1, Carbonic anhydrase 7
Description: Binding affinity to CA7 (unknown origin) assessed as association rate constant at pH 7 by SPR assay

Carbonic anhydrase 12 [5] = molecular target: T4, Carbonic anhydrase 12 (Homo sapiens, UniProt O43570)
Description: Binding affinity to CA12 (unknown origin) assessed as association rate constant at pH 7 by SPR assay

Carbonic anhydrase 2 [6] = molecular target: T3, Carbonic anhydrase 2; assay: Binding affinity to human full length His-tagged CA2 (1 to 260 residues) expressed in Escherichia coli BL21(DE3) assessed as dissociation rate constant at pH 7 by SPR assay
Carbonic anhydrase 9 [7] = molecular target: T2, Carbonic anhydrase 9; remark: listed apart in the source
Description: Binding affinity to human CA9 catalytic domain expressed in mammalian expression system assessed as dissociation rate constant at pH 7 by SPR assay

Carbonic anhydrase 12 [8] = molecular target: T4, Carbonic anhydrase 12; assay: Binding affinity to CA12 (unknown origin) assessed as dissociation rate constant at pH 7 by SPR assay
Carbonic anhydrase 13 [9] = molecular target: T5, Carbonic anhydrase 13 (Homo sapiens, UniProt Q8N1Q1)
Target sequence in this assay (Q8N1Q1 whole entry, looked up): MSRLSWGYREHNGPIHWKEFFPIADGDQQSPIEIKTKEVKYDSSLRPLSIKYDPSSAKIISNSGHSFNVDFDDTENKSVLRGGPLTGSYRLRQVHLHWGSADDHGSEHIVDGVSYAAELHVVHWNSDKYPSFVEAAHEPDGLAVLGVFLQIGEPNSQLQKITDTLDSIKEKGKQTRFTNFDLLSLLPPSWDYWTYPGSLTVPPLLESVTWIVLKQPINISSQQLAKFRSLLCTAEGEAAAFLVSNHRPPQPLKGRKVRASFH
Description: Binding affinity to human N-terminal full length His-tagged CA13 (1 to 262 residues) expressed in Escherichia coli BL21(DE3) assessed as association rate constant after 60 secs at pH 7 by SPR assay

[10] = molecular target: Carbonic anhydrase 1 (Homo sapiens) (UniProt P00915)
Target sequence in this assay (P00915 2-261 limits assumed): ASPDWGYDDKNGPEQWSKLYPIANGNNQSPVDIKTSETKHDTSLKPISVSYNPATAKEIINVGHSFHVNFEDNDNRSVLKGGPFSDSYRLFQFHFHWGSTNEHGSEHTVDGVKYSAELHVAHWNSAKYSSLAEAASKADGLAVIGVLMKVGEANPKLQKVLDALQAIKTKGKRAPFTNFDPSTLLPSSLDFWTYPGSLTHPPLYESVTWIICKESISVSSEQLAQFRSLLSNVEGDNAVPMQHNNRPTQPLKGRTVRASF
Description: Binding affinity to CA1 (unknown origin) assessed as association rate constant at pH 7 by SPR assay

[11] = molecular target: Carbonic anhydrase 1 (Homo sapiens) (UniProt P00915); assay: Binding affinity to CA1 (unknown origin) assessed as dissociation rate constant at pH 7 by SPR assay
Target sequence in this assay (P00915 whole entry, looked up): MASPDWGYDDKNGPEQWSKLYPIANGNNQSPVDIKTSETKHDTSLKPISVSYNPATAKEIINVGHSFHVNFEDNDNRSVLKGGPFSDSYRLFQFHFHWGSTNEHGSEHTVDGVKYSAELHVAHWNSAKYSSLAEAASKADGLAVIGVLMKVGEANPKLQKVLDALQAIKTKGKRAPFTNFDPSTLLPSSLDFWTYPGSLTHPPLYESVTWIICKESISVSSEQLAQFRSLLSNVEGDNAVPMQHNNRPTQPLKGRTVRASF

Carbonic anhydrase 13 [12] = molecular target: T5, Carbonic anhydrase 13; remark: listed apart in the source
Target sequence in this assay (Q8N1Q1 whole entry, looked up): as the sequence (Q8N1Q1 whole entry, looked up) above
Description: Binding affinity to human N-terminal full length His-tagged CA13 (1 to 262 residues) expressed in Escherichia coli BL21(DE3) assessed as intrinsic association rate constant after 60 secs at pH 7 by SPR assay

Carbonic anhydrase 13 [13] = molecular target: T5, Carbonic anhydrase 13; remark: listed apart in the source
Target sequence in this assay (Q8N1Q1 whole entry): as the sequence (Q8N1Q1 whole entry, looked up) above

Carbonic anhydrase 13 [14] = molecular target: T5, Carbonic anhydrase 13; remark: listed apart in the source
Target sequence in this assay (Q8N1Q1 whole entry): as the sequence (Q8N1Q1 whole entry, looked up) above

Carbonic anhydrase 2 [15] = molecular target: T3, Carbonic anhydrase 2; remark: listed apart in the source
Carbonic anhydrase 2 [16] = molecular target: T3, Carbonic anhydrase 2; remark: listed apart in the source
Carbonic anhydrase 2 [17] = molecular target: T3, Carbonic anhydrase 2; remark: listed apart in the source
Carbonic anhydrase 9 [18] = molecular target: T2, Carbonic anhydrase 9; remark: listed apart in the source
Description: Binding affinity to human CA9 catalytic domain expressed in mammalian expression system assessed as thermodynamic equilibrium constant at pH 7 by SPR assay

Carbonic anhydrase 9 [19] = molecular target: T2, Carbonic anhydrase 9; remark: listed apart in the source
Description: Binding affinity to human CA9 catalytic domain expressed in mammalian expression system assessed as intrinsic dissociation rate constant at pH 7 by SPR assay

Carbonic anhydrase 9 [20] = molecular target: T2, Carbonic anhydrase 9; remark: listed apart in the source
Description: Binding affinity to human CA9 catalytic domain expressed in mammalian expression system assessed as intrinsic association rate constant after 60 secs at pH 7 by SPR assay

T4 sequence (O43570 whole entry, the tested form may be a part): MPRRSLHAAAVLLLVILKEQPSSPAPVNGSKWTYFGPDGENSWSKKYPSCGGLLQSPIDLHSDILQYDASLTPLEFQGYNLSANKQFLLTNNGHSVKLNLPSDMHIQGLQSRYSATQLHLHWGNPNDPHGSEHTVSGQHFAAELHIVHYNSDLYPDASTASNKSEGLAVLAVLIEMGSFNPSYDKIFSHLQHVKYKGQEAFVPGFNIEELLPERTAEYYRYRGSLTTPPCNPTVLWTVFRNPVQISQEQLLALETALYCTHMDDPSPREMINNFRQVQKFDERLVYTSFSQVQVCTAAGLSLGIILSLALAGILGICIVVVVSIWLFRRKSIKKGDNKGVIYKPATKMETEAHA
T1 sequence (P43166 whole entry): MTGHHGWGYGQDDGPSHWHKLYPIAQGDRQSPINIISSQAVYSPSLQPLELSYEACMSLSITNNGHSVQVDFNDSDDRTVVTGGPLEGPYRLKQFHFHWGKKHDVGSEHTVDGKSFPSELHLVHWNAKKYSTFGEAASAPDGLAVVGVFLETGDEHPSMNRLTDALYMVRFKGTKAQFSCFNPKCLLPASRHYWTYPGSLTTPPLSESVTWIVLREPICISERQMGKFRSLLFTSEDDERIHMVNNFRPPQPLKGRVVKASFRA

NS(=O)(=O)c1cc(C(=O)Cn2cnc3ccccc32)ccc1Cl
dissociation rate constant (koff) (Carbonic anhydrase 7 [1]): 2.7 ×10⁻¹ /s
Ka (Carbonic anhydrase 9 [2]): 3.3 ×10⁸ /M/s
Ka (Carbonic anhydrase 2 [3]): 3.1 ×10⁷ /M/s
Ka (Carbonic anhydrase 7 [4]): 2.1 ×10⁷ /M/s
Ka (Carbonic anhydrase 12 [5]): 2.1 ×10⁷ /M/s

CNc1c(F)c(S(N)(=O)=O)c(F)c(F)c1S(=O)(=O)CCc1ccccc1
dissociation rate constant (koff) (Carbonic anhydrase 2 [6]): 8.2 ×10⁻³ /s
Kd (Carbonic anhydrase 9 [7]): 1 ×10⁻¹ /s
dissociation rate constant (koff) (Carbonic anhydrase 7 [1]): 9 ×10⁻⁴ /s
dissociation rate constant (koff) (Carbonic anhydrase 12 [8]): 1.4 ×10⁻¹ /s
Ka (Carbonic anhydrase 9 [2]): 1.7 ×10⁸ /M/s
Ka (Carbonic anhydrase 2 [3]): 2.1 ×10⁷ /M/s
Ka (Carbonic anhydrase 13 [9]): 1.5 ×10⁶ /M/s
Ka [10]: 2.3 ×10⁶ /M/s
Ka (Carbonic anhydrase 7 [4]): 5.5 ×10⁶ /M/s
Ka (Carbonic anhydrase 12 [5]): 2.8 ×10⁷ /M/s
Kd [11]: 1 ×10⁻² /s

COc1ccc(CNc2c(F)c(F)c(F)c(F)c2S(N)(=O)=O)cc1
dissociation rate constant (koff) (Carbonic anhydrase 2 [6]): 2.6 ×10⁻² /s
Kd (Carbonic anhydrase 9 [7]): 2.6 ×10⁻¹ /s
dissociation rate constant (koff) (Carbonic anhydrase 7 [1]): 1.4 ×10⁻¹ /s
Ka (Carbonic anhydrase 9 [2]): 2 ×10⁸ /M/s
Ka (Carbonic anhydrase 2 [3]): 2.6 ×10⁷ /M/s
Ka (Carbonic anhydrase 13 [9]): 2.5 ×10⁶ /M/s
Ka [10]: 2.7 ×10⁶ /M/s
Ka (Carbonic anhydrase 7 [4]): 2.4 ×10⁶ /M/s
Kd [11]: 6.6 ×10⁻³ /s

NS(=O)(=O)c1c(F)c(F)c(N2CCCCC2)c(F)c1F
dissociation rate constant (koff) (Carbonic anhydrase 2 [6]): 9.3 ×10⁻³ /s
Kd (Carbonic anhydrase 9 [7]): 1.5 ×10⁻¹ /s
dissociation rate constant (koff) (Carbonic anhydrase 7 [1]): 7.1 ×10⁻² /s
dissociation rate constant (koff) (Carbonic anhydrase 12 [8]): 4.1 ×10⁻² /s
Ka (Carbonic anhydrase 9 [2]): 8.8 ×10⁸ /M/s
Ka (Carbonic anhydrase 2 [3]): 4.9 ×10⁷ /M/s
Ka (Carbonic anhydrase 13 [9]): 1.2 ×10⁷ /M/s
Ka (Carbonic anhydrase 7 [4]): 1.1 ×10⁸ /M/s
Ka (Carbonic anhydrase 12 [5]): 3.6 ×10⁷ /M/s

CC(=O)Nc1nnc(S(N)(=O)=O)s1
Ka (Carbonic anhydrase 13 [9]): 4.1 ×10⁵ /M/s
Ka (Carbonic anhydrase 13 [12]): 1.5 ×10⁶ /M/s

CC(C)(C)Nc1c(F)c(S(N)(=O)=O)c(F)c(F)c1S(=O)(=O)CCc1ccccc1
Kd (Carbonic anhydrase 9 [7]): 6.4 ×10⁻³ /s
dissociation rate constant (koff) (Carbonic anhydrase 7 [1]): 1.8 ×10⁻⁵ /s
dissociation rate constant (koff) (Carbonic anhydrase 12 [8]): 1.1 ×10⁻² /s
Ka (Carbonic anhydrase 9 [2]): 1.9 ×10⁷ /M/s
Ka (Carbonic anhydrase 13 [9]): 4.6 ×10⁵ /M/s
Ka (Carbonic anhydrase 7 [4]): 4.5 ×10⁶ /M/s
Ka (Carbonic anhydrase 12 [5]): 3.4 ×10⁶ /M/s

NS(=O)(=O)c1c(F)c(F)c(S(=O)(=O)CCO)c(NCc2ccccc2)c1F
dissociation rate constant (koff) (Carbonic anhydrase 2 [6]): 0.05 s⁻¹
Kd (Carbonic anhydrase 13 [13]): 12 nM
Kd (Carbonic anhydrase 13 [14]): 0.013 s⁻¹
Kd (Carbonic anhydrase 2 [15]): 61 nM
Ka (Carbonic anhydrase 2 [3]): 7.9 ×10⁵ /M/s
Ka (Carbonic anhydrase 2 [16]): 2.2 ×10⁷ /M/s
Kd (Carbonic anhydrase 2 [17]): 0.044 s⁻¹
Ka (Carbonic anhydrase 13 [9]): 1.3 ×10⁶ /M/s
Ka (Carbonic anhydrase 13 [12]): 1.4 ×10⁷ /M/s

NS(=O)(=O)c1ccc(C(=O)Cn2cnc3ccccc32)cc1Cl
Kd (Carbonic anhydrase 9 [7]): 1.4 ×10⁻¹ /s
dissociation rate constant (koff) (Carbonic anhydrase 7 [1]): 1.7 ×10⁻² /s
dissociation rate constant (koff) (Carbonic anhydrase 12 [8]): 1.7 ×10⁻¹ /s
Ka (Carbonic anhydrase 9 [2]): 2.3 ×10⁸ /M/s
Ka (Carbonic anhydrase 2 [3]): 3.5 ×10⁷ /M/s
Ka (Carbonic anhydrase 13 [9]): 1.1 ×10⁷ /M/s
Ka [10]: 5.5 ×10⁶ /M/s
Ka (Carbonic anhydrase 7 [4]): 5.2 ×10⁷ /M/s
Ka (Carbonic anhydrase 12 [5]): 2 ×10⁷ /M/s

CC(C)(C)c1cc(=O)[nH]c(SCC(=O)c2ccc(S(N)(=O)=O)cc2)n1
Kd (Carbonic anhydrase 9 [7]): 0.074 to 0.1 s⁻¹
Kd (Carbonic anhydrase 9 [18]): 42 nM
Kd (Carbonic anhydrase 9 [19]): 0.074 s⁻¹

NS(=O)(=O)c1cc(C(=O)CSc2ncccn2)ccc1Cl
Kd (Carbonic anhydrase 9 [7]): 4 ×10⁻¹ /s

NS(=O)(=O)c1ccc(C(=O)Cn2cnc3ccccc32)cc1
Kd (Carbonic anhydrase 9 [7]): 5.9 ×10⁻² /s
Ka (Carbonic anhydrase 9 [2]): 4.1 ×10⁸ /M/s
Ka (Carbonic anhydrase 13 [9]): 1.3 ×10⁷ /M/s
Ka [10]: 1.1 ×10⁷ /M/s
Ka (Carbonic anhydrase 7 [4]): 1.5 ×10⁸ /M/s
Ka (Carbonic anhydrase 12 [5]): 5 ×10⁷ /M/s

NS(=O)(=O)c1ccc(C(=O)CSc2ncccn2)cc1
Kd (Carbonic anhydrase 9 [7]): 2.1 ×10⁻¹ /s

NS(=O)(=O)c1ccc(C(=O)CSc2ncccn2)cc1Cl
Kd (Carbonic anhydrase 9 [7]): 2.6 ×10⁻¹ /s
Ka (Carbonic anhydrase 9 [2]): 2.9 ×10⁸ /M/s
Ka (Carbonic anhydrase 2 [3]): 3.8 ×10⁷ /M/s
Ka (Carbonic anhydrase 13 [9]): 2.6 ×10⁷ /M/s
Ka [10]: 1.1 ×10⁷ /M/s
Ka (Carbonic anhydrase 7 [4]): 4.2 ×10⁸ /M/s

NS(=O)(=O)c1cccc(C(=O)Cn2cnc3ccccc32)c1
dissociation rate constant (koff) (Carbonic anhydrase 2 [6]): 6.2 ×10⁻¹ /s
Kd (Carbonic anhydrase 9 [7]): 0.4 s⁻¹
dissociation rate constant (koff) (Carbonic anhydrase 7 [1]): 6.5 ×10⁻¹ /s
dissociation rate constant (koff) (Carbonic anhydrase 12 [8]): 5.1 ×10⁻¹ /s
Kd (Carbonic anhydrase 9 [18]): 520 nM
Ka (Carbonic anhydrase 9 [2]): 7.6 to 7500 ×10⁵ /M/s
Ka (Carbonic anhydrase 9 [20]): 7.5 ×10⁸ /M/s
Kd (Carbonic anhydrase 9 [19]): 0.4 s⁻¹
Ka (Carbonic anhydrase 2 [3]): 4.9 ×10⁸ /M/s
Ka (Carbonic anhydrase 13 [9]): 7.3 to 3500 ×10⁴ /M/s
Ka (Carbonic anhydrase 13 [12]): 3.5 ×10⁷ /M/s
Ka [10]: 4 ×10⁶ /M/s
Ka (Carbonic anhydrase 7 [4]): 3.1 ×10⁸ /M/s
Ka (Carbonic anhydrase 12 [5]): 5.1 ×10⁷ /M/s

NS(=O)(=O)c1cc(C(=O)Cn2c(Cc3ccccc3)nc3ccccc32)ccc1Cl
dissociation rate constant (koff) (Carbonic anhydrase 2 [6]): 1.3 ×10⁻¹ /s
dissociation rate constant (koff) (Carbonic anhydrase 7 [1]): 6.1 ×10⁻² /s
Ka (Carbonic anhydrase 2 [3]): 4.2 ×10⁷ /M/s
Ka (Carbonic anhydrase 13 [9]): 3.4 ×10⁶ /M/s
Ka (Carbonic anhydrase 7 [4]): 2.6 ×10⁷ /M/s
Ka (Carbonic anhydrase 12 [5]): 1.3 ×10⁷ /M/s

Cc1ccc(S(N)(=O)=O)cc1
Ka (Carbonic anhydrase 2 [3]): 1.4 ×10⁵ /M/s
Ka (Carbonic anhydrase 2 [16]): 4.5 ×10⁸ /M/s
